Laboratory results as given in ChEMBL document CHEMBL1150001, “A rationale for the design and synthesis of m1 selective muscarinic agonists” (Bioorg Med Chem Lett, 1992).
Positions count from the first letter of the chain named. Active and inactive are the calls of the source. The calls are words filed in the database; no cut-off is given here.

Tests used:
[1] = biological target: Muscarinic acetylcholine receptor; assay: Compound was evaluated for inhibition of [3H]cis-methyldioxolane binding to label agonist sites (RCMD) in rat neocortex
[2] = biological target: T1, Muscarinic acetylcholine receptor M1 (Homo sapiens, UniProt P11229); type: functional, cell-based, CHO
T1 sequence (P11229 whole entry): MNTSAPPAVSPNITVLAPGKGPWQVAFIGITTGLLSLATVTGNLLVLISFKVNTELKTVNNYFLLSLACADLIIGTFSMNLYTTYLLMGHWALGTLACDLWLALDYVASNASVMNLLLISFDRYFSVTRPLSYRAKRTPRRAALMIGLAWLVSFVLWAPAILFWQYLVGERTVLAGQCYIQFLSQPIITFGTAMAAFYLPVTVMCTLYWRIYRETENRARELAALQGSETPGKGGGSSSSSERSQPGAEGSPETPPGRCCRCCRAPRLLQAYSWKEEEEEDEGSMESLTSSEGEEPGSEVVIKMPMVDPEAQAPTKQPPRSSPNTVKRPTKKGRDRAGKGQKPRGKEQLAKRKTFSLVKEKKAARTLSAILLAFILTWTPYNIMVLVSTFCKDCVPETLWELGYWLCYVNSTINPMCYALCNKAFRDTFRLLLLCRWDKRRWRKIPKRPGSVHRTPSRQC
Description: Inhibitory activity against human Muscarinic acetylcholine receptor M1 using [3H]quinuclidinyl benzilate to label antagonist site (RQNB) in CHO cells

[3] = biological target: T2, Muscarinic receptor M1 and M2 (Rattus norvegicus, UniProt P08482+P10980); assay: Compound was evaluated for its inhibition of [3H]quinuclidinyl benzilate binding to label antagonist site (RQNB) in rat neocortex
T2 sequence (P08482 whole entry): T1 sequence (P11229 whole entry) with A5V, T254S, P309S, R320K, A337G, I413V
T2 sequence (P10980 whole entry): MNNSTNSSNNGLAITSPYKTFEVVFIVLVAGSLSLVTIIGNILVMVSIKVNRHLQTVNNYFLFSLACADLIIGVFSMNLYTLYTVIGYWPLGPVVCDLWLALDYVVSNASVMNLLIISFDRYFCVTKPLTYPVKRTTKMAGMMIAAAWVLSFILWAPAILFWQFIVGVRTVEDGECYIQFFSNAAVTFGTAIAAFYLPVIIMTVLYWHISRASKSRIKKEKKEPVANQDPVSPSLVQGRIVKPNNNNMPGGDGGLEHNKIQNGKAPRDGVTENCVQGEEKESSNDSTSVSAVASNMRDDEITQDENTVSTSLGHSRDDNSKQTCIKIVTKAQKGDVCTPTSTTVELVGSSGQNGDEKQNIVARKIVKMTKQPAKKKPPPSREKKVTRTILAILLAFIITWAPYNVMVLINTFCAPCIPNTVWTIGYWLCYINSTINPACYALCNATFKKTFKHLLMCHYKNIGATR

[4] = biological target: T3, Muscarinic acetylcholine receptor M2 (Homo sapiens, UniProt P08172); assay: Inhibitory activity against human Muscarinic acetylcholine receptor M2 using [3H]quinuclidinyl benzilate to label antagonist site (RQNB) in CHO cells; type: cell-based
T3 sequence (P08172 whole entry): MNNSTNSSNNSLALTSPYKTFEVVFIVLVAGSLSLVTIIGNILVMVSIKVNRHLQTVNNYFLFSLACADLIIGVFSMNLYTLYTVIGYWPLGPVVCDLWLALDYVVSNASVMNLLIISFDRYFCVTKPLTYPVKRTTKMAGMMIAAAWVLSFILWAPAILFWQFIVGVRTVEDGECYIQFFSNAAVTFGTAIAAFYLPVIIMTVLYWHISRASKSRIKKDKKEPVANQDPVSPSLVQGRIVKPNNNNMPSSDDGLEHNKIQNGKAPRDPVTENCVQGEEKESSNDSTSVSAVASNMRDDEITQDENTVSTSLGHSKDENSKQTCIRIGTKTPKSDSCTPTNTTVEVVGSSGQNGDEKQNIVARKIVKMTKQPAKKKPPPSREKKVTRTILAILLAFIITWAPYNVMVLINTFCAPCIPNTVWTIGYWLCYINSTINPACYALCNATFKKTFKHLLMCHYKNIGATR

[5] = biological target: T4, Muscarinic acetylcholine receptor M3 (Homo sapiens, UniProt P20309); assay: Evaluated for its MIPA (muscarinic-stimulated inositol phosphate accumulation) activity measured in SK-N-SH neuroblastoma cells expressing human muscarinic m3 receptor, compound run at 100 uM;100 uM of carbachol was used; type: functional, cell-based
Target sequence in this assay (P20309 whole entry, looked up): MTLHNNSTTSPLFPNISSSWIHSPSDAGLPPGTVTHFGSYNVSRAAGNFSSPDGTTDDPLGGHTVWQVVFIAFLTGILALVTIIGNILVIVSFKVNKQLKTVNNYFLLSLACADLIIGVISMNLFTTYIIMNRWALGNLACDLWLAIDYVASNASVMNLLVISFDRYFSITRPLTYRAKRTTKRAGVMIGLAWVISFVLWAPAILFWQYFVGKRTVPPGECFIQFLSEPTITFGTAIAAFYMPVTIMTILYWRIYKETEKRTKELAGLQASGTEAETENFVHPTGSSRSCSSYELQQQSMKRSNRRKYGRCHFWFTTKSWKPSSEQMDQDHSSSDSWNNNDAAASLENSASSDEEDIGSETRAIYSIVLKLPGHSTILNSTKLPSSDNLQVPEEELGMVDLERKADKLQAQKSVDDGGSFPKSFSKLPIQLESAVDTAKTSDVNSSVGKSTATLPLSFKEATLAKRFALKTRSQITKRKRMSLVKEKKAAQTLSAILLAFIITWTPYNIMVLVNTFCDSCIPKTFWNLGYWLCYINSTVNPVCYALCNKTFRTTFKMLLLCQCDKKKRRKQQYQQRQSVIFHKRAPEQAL

[6] = biological target: T4, Muscarinic acetylcholine receptor M3; type: functional, cell-based, SK-N-SH
Target sequence in this assay (P20309 whole entry): as the sequence (P20309 whole entry, looked up) above
Description: Effective concentration for MIPA (muscarinic-stimulated inositol phosphate accumulation) activity in SK-N-SH neuroblastoma cells expressing human muscarinic M3 receptor

[7] = biological target: T3, Muscarinic acetylcholine receptor M2; assay: Compound was evaluated for inhibitory activity for Muscarinic acetylcholine receptor M2 using [3H]quinuclidinyl benzilate to label antagonist site (RQNB) in CHO cells; type: cell-based
[8] = biological target: T1, Muscarinic acetylcholine receptor M1; type: functional, cell-based, CHO; remark: listed apart in the source
Description: Effective concentration for HMPA (human muscarinic inositol phosphate accumulation) activity measured in CHO cells expressing Muscarinic acetylcholine receptor M1

[9] = biological target: T5, Muscarinic acetylcholine receptor M1 (Homo sapiens) (UniProt P11229); conditions: CHO; at 100 µM
T5 sequence (whole entry): T1 sequence (P11229 whole entry)
Description: Evaluated for its HMPA (human muscarinic inositol phosphate accumulation) activity measured in CHO cells expressing Muscarinic acetylcholine receptor M1 compound run at 100 uM

[10] = biological target: T4, Muscarinic acetylcholine receptor M3; assay: Evaluated for its MIPA (muscarinic-stimulated inositol phosphate accumulation) activity measured in SK-N-SH neuroblastoma cells expressing human m3 receptor, compound run at 100 uM;100 uM of carbachol was used; type: functional, cell-based
Target sequence in this assay (P20309 whole entry, looked up): as above

[11] = biological target: T3, Muscarinic acetylcholine receptor M2; assay: Compound was evaluated for inhibitory activity against human Muscarinic acetylcholine receptor M2 using [3H]quinuclidinyl benzilate to label antagonist site (RQNB) in CHO cells; NA: Not active; type: cell-based
[12] = biological target: Muscarinic acetylcholine receptors; M1 & M2 (Homo sapiens) (UniProt P11229+P08172); assay: Selectivity ratio for m1 over m2 muscarinic receptors was determined; NA=Not active; type: protein assay
[13] = biological target: T1, Muscarinic acetylcholine receptor M1; assay: Compound was evaluated for its inhibitory activity against human Muscarinic acetylcholine receptor M1 using [3H]quinuclidinyl benzilate to label antagonist site (RQNB) in CHO cells; NA=Not active; type: cell-based
[14] = biological target: T3, Muscarinic acetylcholine receptor M2; assay: Compound was evaluated for inhibitory activity against human Muscarinic acetylcholine receptor M2 using [3H]quinuclidinyl benzilate to label antagonist site (RQNB) in CHO cells; Not active; type: cell-based
[15] = biological target: T1, Muscarinic acetylcholine receptor M1; assay: Compound was evaluated for its inhibitory activity against human Muscarinic acetylcholine receptor M1 using [3H]quinuclidinyl benzilate to label antagonist site (RQNB) in CHO cells; Not active; type: cell-based

SMILES | IC50 [1] [µM] | IC50 [2] [µM] | IC50 [3] [µM] | IC50 [4] [µM] | CCh [5] [%] | EC50 [6] [µM] | IC50 [7] [µM] | EC50 [8] [µM] | CCh [9] [%] | CCh [10] [%] | IC50 [11] | Ratio [12] | IC50 [13] | IC50 [14] | IC50 [15]
C#CC(C)O/N=C1\CN2CCC1C2 (stereo not drawn) | 0.035 | 3.69 | 3.984 | 5.28 |  |  |  |  |  |  |  |  |  |  | 
CO/N=C1\CN2CCC1C2 (stereo not drawn) |  | 85 | 24.558 | 7.89 | 53 | 14.6 |  |  |  |  |  |  |  |  | 
CCCC#CCO/N=C1\CN2CCC1C2 (stereo not drawn) | 0.048 | 9.64 | 8.689 |  |  |  | 20.6 |  |  |  |  |  |  |  | 
CC#CCC#CCO/N=C1\CN2CCC1C2 (stereo not drawn) | 0.039 | 5.68 | 2.914 | 5.08 | 2 |  |  | 5.05 | 81 |  |  |  |  |  | 
CCO/N=C1\CN2CCC1C2 (stereo not drawn) | 0.0125 |  | 3.112 |  | 19 | 8.9 |  |  |  |  |  |  |  |  | 
CCCCC#CCO/N=C1\CN2CCC1C2 (stereo not drawn) | 0.044 | 7.89 | 6.045 | 9.65 |  |  |  |  |  |  |  |  |  |  | 
C[N+](C)(C)CC#CCOC(=O)Nc1cccc(Cl)c1.[Cl-] | 0.025 | 4 | 5.304 | 12.9 |  |  |  | 3.5 | 57 | 3 |  |  |  |  | 
C#CCC#CCC#CCO/N=C1\CN2CCC1C2 (stereo not drawn) |  | 2.03 | 0.958 | 2.18 | 0 |  |  | 5.1 | 50 |  |  |  |  |  | 
C#CCCCO/N=C1\CN2CCC1C2 (stereo not drawn) | 0.111 |  | 3.655 |  |  |  |  |  |  |  | Not Active | inactive | Not Active |  | 
C1CC(O/N=C2\CN3CCC2C3)C1 (stereo not drawn) | 0.088 | 1.11 | 1.156 | 1.63 |  |  |  |  |  |  |  |  |  |  | 
C#CCC#CCO/N=C1\CN2CCC1C2 (stereo not drawn) |  | 10 | 8.834 | 2.84 | 14 | 16.4 |  | 4.7 | 79 |  |  |  |  |  | 
C#C/C=C/CO/N=C1\CN2CCC1C2 (stereo not drawn) |  | 12.6 | 13.85 | 30.2 |  |  |  |  |  |  |  |  |  |  | 
CC#CCO/N=C1\CN2CCC1C2 (stereo not drawn) | 0.004 | 5.81 | 4.214 | 1.7 |  | 8.8 |  | 1.9 | 63 | 49 |  |  |  |  | 
CCC#CCO/N=C1\CN2CCC1C2 (stereo not drawn) | 0.0036 | 4.9 | 5.976 | 8.6 | 56 | 9.6 |  | 5.9 | 72 |  |  |  |  |  | 
O/N=C1\CN2CCC1C2 (stereo not drawn) | > 0.1 |  | > 1 |  |  |  |  |  |  |  |  |  |  | Not Active | Not Active
C(#Cc1ccccc1)CO/N=C1\CN2CCC1C2 (stereo not drawn) |  | 5.42 | 5.012 | 25.8 | 11 |  |  | 3.3 | 76 |  |  |  |  |  | 
CCCO/N=C1\CN2CCC1C2 (stereo not drawn) | 0.12 | 3.68 | 0.032 | 3.98 | 3 |  |  | 27 | 44 |  |  |  |  |  | 
C=CCC#CCO/N=C1\CN2CCC1C2 (stereo not drawn) | 0.032 | 9.44 | 7.313 | 15.9 |  |  |  |  |  |  |  |  |  |  | 
CC(C)O/N=C1\CN2CCC1C2 (stereo not drawn) | 0.046 | 2.61 | 2.03 | 3.15 |  |  |  |  |  |  |  |  |  |  | 
C#CCO/N=C1\CN2CCC1C2 (stereo not drawn) |  | 9.51 | 4.359 | 1.04 | 51 | 8.4 |  | 0.89 | 104 |  |  |  |  |  | 
Nc1noc(C2CN3CCC2C3)n1 (stereo not drawn) [OXADIAZOLE] | 0.0003 | 0.4 | 0.088 | 0.02 | 0.269 | 104 |  | 100 | 293 |  |  |  |  |  | 
C#CCCO/N=C1\CN2CCC1C2 (stereo not drawn) | 0.083 | 14.5 | 9.806 | 15.6 |  |  |  |  |  |  |  |  |  |  | 
COCC#CCO/N=C1\CN2CCC1C2 (stereo not drawn) | 0.055 | 42.4 | 35.434 | 59.3 |  |  |  |  |  |  |  |  |  |  | 
CC(C)(C)O/N=C1\CN2CCC1C2 (stereo not drawn) | 0.091 | 3.84 | 3.54 | 4.46 |  |  |  |  |  |  |  |  |  |  | 
